# PMC7367207 (2020)
# What was measured:
# [1] = system: crystallized SAM/SAH riboswitch (RNA1-26 + RNA2-9) (RNA, riboswitch, 5-bromocytidine at 4 of strand 1) GGUCACAACGGCUUCCUGGCGUGACC/AUUGGAGCA; assay: X-ray crystallography; conditions: crystal
# [2] = system: SAM/SAH riboswitch G44U (RNA, riboswitch) UACCUGUCACAACGGCUUCCUGGCGUGACGAGGUGACCUCAUUGGAGCAA; assay: ITC; conditions: 100 mM K+, 10 mM Mg2+; 40 mM HEPES-K pH 7.0, 298 K
# [3] = system: U23isoC-modified SAM/SAH riboswitch (RNA, riboswitch, isocytidine at 21 (paper position 23, replaces U)) UACCUGUCACAACGGCUUCCUGGCGUGACGAGGUGACCUCAGUGGAGCAA; assay: ITC; conditions: 100 mM K+, 10 mM Mg2+; 40 mM HEPES pH 7.0, 298 K; 40 µM RNA, 1 mM ligand stock (legend; methods: 500 µM)
# [4] = system: SK209-50 SAM/SAH riboswitch (wt) (RNA, riboswitch) UACCUGUCACAACGGCUUCCUGGCGUGACGAGGUGACCUCAGUGGAGCAA; assay: ITC; conditions: 100 mM K+, 10 mM Mg2+; 40 mM HEPES-K pH 7.0, 298 K
# [5] = system: G46N7CH-modified SAM/SAH riboswitch (RNA, riboswitch, 7-deazaguanosine (N7 to CH) at 44 (paper position 46)) UACCUGUCACAACGGCUUCCUGGCGUGACGAGGUGACCUCAGUGGAGCAA; assay: ITC; conditions: 100 mM K+, 10 mM Mg2+; 40 mM HEPES pH 7.0, 298 K; 40 µM RNA, 1 mM ligand stock (legend; methods: 500 µM)
# [6] = system: smFRET SAM/SAH riboswitch with 3' DNA extension on anchor DNA (DNA:RNA, riboswitch, 3' 18 nt of strand 1 and all of strand 2 are DNA) GAUACCUGUCACAACGGCUUCCUGGCGUGACGAGGUGACCUCAGUGGAGCAAACCGCTGCCGTCGCTCCG/CGGAGCGACGGCAGCGGT; assay: single-molecule FRET, high-FRET fraction; conditions: 100 mM K+, 2 mM Mg2+; 40 mM HEPES pH 7.5, surface-immobilised RNA, two-state isotherm
# [7] = system: G44O2'H-modified SAM/SAH riboswitch (RNA, riboswitch, 2'-deoxyguanosine at 42 (paper position 44)) UACCUGUCACAACGGCUUCCUGGCGUGACGAGGUGACCUCAGUGGAGCAA; assay: ITC; conditions: 100 mM K+, 10 mM Mg2+; 40 mM HEPES pH 7.0, 298 K; 40 µM RNA, 1 mM ligand stock (legend; methods: 500 µM)
# [8] = system: U23C-modified SAM/SAH riboswitch (RNA, riboswitch) UACCUGUCACAACGGCUUCCCGGCGUGACGAGGUGACCUCAGUGGAGCAA; assay: ITC; conditions: 100 mM K+, 10 mM Mg2+; 40 mM HEPES pH 7.0, 298 K; 40 µM RNA, 1 mM ligand stock (legend; methods: 500 µM)
SMILES,Kd [4],Kd [6],binding [1],further results
CSC[C@H]1O[C@@H](n2cnc3c(N)ncnc32)[C@H](O)[C@@H]1O,,,,"binding ([1]; PDB title says AMP, ligand record MTA): yes"
Nc1ncnc2c1ncn2[C@@H]1O[C@H](COP(=O)(O)O)[C@@H](O)[C@H]1O,,,yes,
Nc1ncnc2c1ncn2[C@@H]1O[C@H](CSCC[C@H](N)C(=O)O)[C@@H](O)[C@H]1O,20 ± 2 µM,6 µM,,"binding ([1]; 1.7 Å, second SAH only at lattice contact): yes"

# More lines, main results first:
Kd [4],Kd [6],binding [1],SMILES,further results
19 ± 2 µM,10 µM,,C[S+](CC[C@H](N)C(=O)O)C[C@H]1O[C@@H](n2cnc3c(N)ncnc32)[C@H](O)[C@@H]1O (stereo partly shown),binding ([1]; also 6YMM in space group P312): yes; Kd [2]: 13 ± 3 µM; binding [3]: no; binding [5]: no; binding [7]: weak; binding [8]: no
12 ± 1 µM,,yes,NCCCSC[C@H]1O[C@@H](n2cnc3c(N)ncnc32)[C@H](O)[C@@H]1O,
,,yes,Nc1ncnc2c1ncn2[C@@H]1O[C@H](CO)[C@@H](O)[C@H]1O,
